How the values were obtained:
[1] = test system: HLA-DRB1; experiment: qRT-PCR and immunoblot of HLA-DRB1 mRNA and protein levels in melanoma cells; assay type: cell-based, human; details: 250 μM
Procedure: Cells were lysed on ice in RIPA lysis buffer (25 mM Tris-HCl pH 7.6, 150 mM NaCl, 5 mM EDTA, 1% NP-40 or 1% Triton X-100, 1% sodium deoxycholate, 0.1% SDS in diH2O+protease and phosphatase inhibitors (ThermoFisher Scientific (Waltham, MA)), briefly sonicated, pelleted, and the resulting lysates were normalized by protein concentration using DC assay (BioRad Laboratories, (Hercules, CA)). The indicated samples were subjected to (12%) SDS-PAGE and immunoblot analysis using the indicated antibodies. Immunoblot imaging and analysis was performed using either an Odyssey FC scanner and ImageStudio (LiCor Biosciences, Lincoln, NE) or film.
RNA from cells subjected to the indicated treatments was extracted using Gene Elute Mammalian Total RNA Extraction System (Millipore Sigma (St. Louis, MO)). RNA was reversed transcribed to cDNA using High-Capacity cDNA Reverse Transcription Kit (ThermoFisher Scientific (Waltham, MA)). qRT-PCR analysis was performed using FastStart Universal SYBR Green Master Mix (Rox) (Roche Diagnostics, (Indianapolis, IN)) using a BioRad CFX96 Real-time system (BioRad Laboratories, (Hercules, CA)). The qRT-PCR cycles used were as follows: 95° C. for 10 min, 35 cycles of 95° C. for 15 seconds, 55° C. for 60 seconds,
and 72° C. for 30 seconds. Expression of the indicated genes was normalized to histone H3A expression. […]

[2] = test system: BMMC; experiment: Flow cytometric DC polarization of BMMC; assay type: cell-based
Procedure: We next investigated the effect of L-fucose on dendritic cell differentiation. To test whether L-fucose affected immature or mature myeloid cells preferentially, BMMC were treated with L-fucose at various stages of development, pre=before maturation cocktail, concurrent=during maturation cocktail or post=after maturation cocktail (FIG. 23A). […] We next sought to determine if L-fucose equally affected subpopulations of DCs. By flow cytometric analysis we were able to determine that moDC are affected most by the modulation of fucosylation in immature myeloid cell populations.

[3] = test system: human PBMC-derived CD4+T cells; experiment: Phosphoproteomic and fucosylated proteomic analyses of CD3/CD28-activated CD4+T cells; assay type: cell-based; details: 250 μM L-fucose
Procedure: CD4^+T cells cultured and treated as indicated in the main text were harvested and lysed in standard RIPA buffer+protease and phosphatase inhibitors. Protein concentration was estimated by BCA assay (Bio-Rad) and 1 mg lysates were subjected to trypsin digestion. Briefly, lysates were reduced with 4.5 mM dithiothreitol (DTT) for 30 min at 60° C., alkylated with 10 mM iodoacetamide (IAA) at room temperature in the dark for 20 minutes, and digested overnight at 37° C. with 1:20 enzyme-to-protein ratio of trypsin (Worthington). The resulting peptide solution was de-salted using reversed-phase Sep-Pak C18 cartridge (Waters) and lyophilized for 48 hours.
The lyophilized peptides were enriched for global phosphopeptides (pSTY) using IMAC Fe-NTA magnetic beads (Cell Signaling Technology, #20432). Enrichment were carried out on a KingFisher™ Flex Purification System (Thermo Fisher, #24074441). […]
On-bead digestion was performed with trypsin and tryptic peptides were then analyzed using a nanoflow ultra-high-performance liquid chromatograph (RSLC, Dionex, Sunnyvale, CA) coupled to an electrospray orbitrap mass spectrometer (Q-Exactive Plus, Thermo, San Jose, CA) for tandem mass spectrometry peptide sequencing. […] MaxQuant software (version 1.6.2.10) was used to identify and quantify the proteins for the DDA runs. […]

C[C@H](O)[C@@H](O)[C@@H](O)[C@H](O)C=O [L-fucose]
HLA-DRB1 mRNA and protein levels [1]: remained unchanged
polarization of myeloid cells (DC subpopulations) ([2]; flow cytometric analysis): polarizes myeloid cells towards a moDC phenotype
absolute DC numbers ([2]; flow cytometric profiling of BMMCs): without affecting absolute DC numbers
DC polarization of BMMC ([2]; treated pre, concurrent or post maturation cocktail): leads to DC polarization of BMMC at any stage of myeloid development
Protein Kinase A (PKA) and actin signaling in CD4+T cells [3]: significantly altering
